Source: patent US8501946B2 (Glaxo Group Limited, priority 2009, dated 2013)

target: T1, human recombinant P2X7 receptors (Homo sapiens, UniProt Q99572); assay: Ethidium Accumulation Assay 1 (HEK293 cells, ATP-induced ethidium uptake); format: cell-based; settings: HEK293 cells expressing human P2X7; 1 mM ATP; sometimes mean of more than one measurement; read-out: Assay 1 (antagonist pIC50 for blocking ATP responses) (converted)
T1 construct: expressed in transfected cells
T1 sequence (Q99572 1-595): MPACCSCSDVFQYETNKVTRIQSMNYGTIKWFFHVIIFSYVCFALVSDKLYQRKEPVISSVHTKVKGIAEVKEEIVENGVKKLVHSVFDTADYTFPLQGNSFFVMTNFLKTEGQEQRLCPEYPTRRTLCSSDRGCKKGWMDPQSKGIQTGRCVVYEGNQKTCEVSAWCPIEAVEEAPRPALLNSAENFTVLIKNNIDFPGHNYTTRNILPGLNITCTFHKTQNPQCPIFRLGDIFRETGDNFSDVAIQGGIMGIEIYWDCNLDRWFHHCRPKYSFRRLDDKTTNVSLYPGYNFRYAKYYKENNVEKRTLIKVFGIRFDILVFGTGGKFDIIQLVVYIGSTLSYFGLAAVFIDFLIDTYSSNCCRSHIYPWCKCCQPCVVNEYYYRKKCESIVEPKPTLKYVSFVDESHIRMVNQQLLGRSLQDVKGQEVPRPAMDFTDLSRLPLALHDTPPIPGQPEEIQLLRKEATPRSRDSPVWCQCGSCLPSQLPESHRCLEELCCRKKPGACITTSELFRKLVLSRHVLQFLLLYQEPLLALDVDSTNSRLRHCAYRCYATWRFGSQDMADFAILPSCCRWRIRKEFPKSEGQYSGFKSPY
Experimental: Eithidium Accumulation Assay 1
Studies were performed using NaCl assay buffer of the following composition: 140 mM NaCl, 10 mM HEPES [4-(2-hydroxyethyl)-1-piperazine-1-ethanesulfonic acid], 5 mM N-methyl-D-glucamine, 5.6 mM KCl, 10 mM D-glucose, 0.5 mM CaCl2 (pH 7.4).
Human Embryonic Kidney (HEK) 293 cells, stably expressing human recombinant P2X7 receptors, were grown in poly-D-lysine pretreated 96 well plates for 18-24 hours.
The cells were washed twice with 350 μl of the assay buffer, before addition of 50 μl of the assay buffer containing the putative P2X7 receptor antagonist compound. (A small amount of dimethyl sulfoxide, for initially dissolving the compound, is optionally used and present in this 50 μl test compound sample.) The cells were then incubated at room temperature (19-21° C.) for 30 min before addition of ATP and ethidium (100 μM final assay concentration). The ATP concentration was chosen to be close to the EC80 for the receptor type and was 1 mM for studies on the human P2X7 receptor. Incubations were continued for 8 or 16 min and were terminated by addition of 25 μl of 1.3M sucrose containing 4 mM of the P2X7 receptor antagonist Reactive Black 5 (Aldrich). […] Antagonist pIC50 values for blocking ATP responses were determined using iterative curve fitting techniques.

| IC50 | SMILES |
| --- | --- |
| < 100 nM | O=C(c1ccc(Cl)c(C(F)(F)F)c1)N1CCn2c(nnc2-c2cnccn2)C1 [Example 104, 7-{[4-chloro-3-(trifluoromethyl)phenyl]carbonyl}-3-(2-pyrazinyl)-5,6,7,8-tetrahydro[1,2,4]triazolo [4,3-a]pyrazine] |
| < 10 nM | Cn1ccc(-c2nnc3n2CCN(C(=O)c2cccc(Cl)c2Cl)C3)n1 [Example 63, 7-[(2,3-dichlorophenyl)carbonyl]-3-(1-methyl-1H-pyrazol-3-yl)-5,6,7,8-tetrahydro[1,2,4]triazolo [4,3-a]pyrazine] |
| < 100 nM | O=C(c1cccc(Cl)c1Cl)N1CCn2c(nnc2-c2cccnn2)C1 [Example 57, 7-[(2,3-dichlorophenyl)carbonyl]-3-(3-pyridazinyl)-5,6,7,8-tetrahydro[1,2,4]triazolo [4,3-a]pyrazine] |
| < 10 nM | O=C(c1cccc(C(F)(F)F)c1Cl)N1CCn2c(nnc2-c2cscn2)C1 [Example 42, 7-{[2-chloro-3-(trifluoromethyl)phenyl]carbonyl}-3-(1,3-thiazol-4-yl)-5,6,7,8-tetrahydro[1,2,4]triazolo[4,3-a]pyrazine] |
| < 10 nM | O=C(c1cccc(C(F)(F)F)c1Cl)N1CCn2c(nnc2-c2ccccc2)C1 [Example 13, 7-{[2-Chloro-3-(trifluoromethyl)phenyl]carbonyl}-3-phenyl-5,6,7,8-tetrahydro[1,2,4]triazolo[4,3-a]pyrazine] |
| < 100 nM | Cc1cccnc1-c1nnc2n1CCN(C(=O)c1cccc(Cl)c1Cl)C2 [Example 66, 7-[(2,3-dichlorophenyl)carbonyl]-3-(3-methyl-2-pyridinyl)-5,6,7,8-tetrahydro[1,2,4]triazolo [4,3-a]pyrazine] |
| < 100 nM | O=C(c1ccccc1Cl)N1CCn2c(nnc2-c2ccc(F)cc2)C1 [Example 119, 7-[(2-chlorophenyl)carbonyl]-3-(4-fluorophenyl)-5,6,7,8-tetrahydro[1,2,4]triazolo[4,3-a]pyrazine] |
| < 100 nM | O=C(c1cccc(C(F)(F)F)c1Cl)N1CCn2c(nnc2C2CC2)C1 [Example 133, 7-{[2-chloro-3-(trifluoromethyl)phenyl]carbonyl}-3-cyclopropyl-5,6,7,8-tetrahydro[1,2,4]triazolo[4,3-a]pyrazine] |
| < 100 nM | Cc1cc(-c2nnc3n2CCN(C(=O)c2cccc(C(F)(F)F)c2Cl)C3)no1 [Example 36, 7-{[2-chloro-3-(trifluoromethyl)phenyl]carbonyl}-3-(5-methyl-3-isoxazolyl)-5,6,7,8-tetrahydro[1,2,4]triazolo [4,3-a]pyrazine] |
| < 10 nM | O=C(c1ccc(Cl)c(F)c1Cl)N1CCn2c(nnc2-c2ccc(F)cn2)C1 [Example 110, 7-[(2,4-Dichloro-3-fluorophenyl)carbonyl]-3-(5-fluoro-2-pyridinyl)-5,6,7,8-tetrahydro[1,2,4]triazolo[4,3-a]pyrazine] |
| < 501 nM | O=C(c1c(Cl)cc(Cl)cc1Cl)N1CCn2c(Br)nnc2C1 [Example 8, 3-bromo-7-[(2,4,6-trichlorophenyl)carbonyl]-5,6,7,8-tetrahydro[1,2,4]triazolo [4,3-a]pyrazine] |
| < 501 nM | O=C(c1ccccc1Cl)N1CCn2c(nnc2-c2ccncn2)C1 [Example 116, 7-[(2-chlorophenyl)carbonyl]-3-(4-pyrimidinyl)-5,6,7,8-tetrahydro[1,2,4]triazolo[4,3-a]pyrazine] |
| < 100 nM | O=C(c1cccc(Cl)c1Cl)N1CCn2c(nnc2-c2cccc(F)n2)C1 [Example 55, 7-[(2,3-dichlorophenyl)carbonyl]-3-(6-fluoro-2-pyridinyl)-5,6,7,8-tetrahydro[1,2,4]triazolo [4,3-a]pyrazine] |
| < 10 nM | O=C(c1cccc(Cl)c1Cl)N1CCn2c(nnc2-c2ccc(F)cn2)C1 [Example 54, 7-[(2,3-dichlorophenyl)carbonyl]-3-(5-fluoro-2-pyridinyl)-5,6,7,8-tetrahydro[1,2,4]triazolo [4,3-a]pyrazine] |
| < 100 nM | O=C(c1ccc(Cl)cc1C(F)(F)F)N1CCn2c(nnc2-c2cnccn2)C1 [Example 142, 7-{[4-chloro-2-(trifluoromethyl)phenyl]carbonyl}-3-(2-pyrazinyl)-5,6,7,8-tetrahydro[1,2,4]triazolo[4,3-a]pyrazine] |
| < 100 nM | O=C(c1cccc(C(F)(F)F)c1Cl)N1CCn2c(nnc2N2CCC2)C1 [Example 22, 3-(1-azetidinyl)-7-{[2-chloro-3-(trifluoromethyl)phenyl]carbonyl}-5,6,7,8-tetrahydro[1,2,4]triazolo [4,3-a]pyrazine] |
| < 501 nM | CC(C)(C)c1nnc2n1CCN(C(=O)c1cccc(C(F)(F)F)c1Cl)C2 [Example 25, 7-{[2-chloro-3-(trifluoromethyl)phenyl]carbonyl}-3-(1,1-dimethylethyl)-5,6,7,8-tetrahydro[1,2,4]triazolo [4,3-a]pyrazine] |
| < 501 nM | O=C(c1c(F)cccc1Cl)N1CCn2c(nnc2-c2ccccn2)C1 [Example 79, 7-[(2-chloro-6-fluorophenyl)carbonyl]-3-(2-pyridinyl)-5,6,7,8-tetrahydro[1,2,4]triazolo [4,3-a]pyrazine] |
| < 100 nM | O=C(c1ccc(F)c(Cl)c1)N1CCn2c(nnc2-c2cnccn2)C1 [Example 105, 7-[(3-chloro-4-fluorophenyl)carbonyl]-3-(2-pyrazinyl)-5,6,7,8-tetrahydro[1,2,4]triazolo [4,3-a]pyrazine] |
| < 100 nM | O=C(c1cccc(C(F)(F)F)c1Cl)N1CCn2c(nnc2-c2ccncn2)C1 [Example 12, 7-{[2-chloro-3-(trifluoromethyl)phenyl]carbonyl}-3-(4-pyrimidinyl)-5,6,7,8-tetrahydro[1,2,4]triazolo[4,3-a]pyrazine] |
| < 100 nM | O=C(c1ccccc1Cl)N1CCn2c(nnc2-c2cnccn2)C1 [Example 120, 7-[(2-chlorophenyl)carbonyl]-3-(2-pyrazinyl)-5,6,7,8-tetrahydro[1,2,4]triazolo[4,3-a]pyrazine] |
| < 100 nM | O=C(c1ccc(F)cc1Cl)N1CCn2c(nnc2-c2ncc(F)cc2F)C1 [Example 84, 7-[(2-chloro-4-fluorophenyl)carbonyl]-3-(3,5-difluoro-2-pyridinyl)-5,6,7,8-tetrahydro[1,2,4]triazolo [4,3-a]pyrazine] |
| < 10 nM | O=C(c1ccc(Cl)cc1Cl)N1CCn2c(nnc2-c2cscn2)C1 [Example 97, 7-[(2,4-dichlorophenyl)carbonyl]-3-(1,3-thiazol-4-yl)-5,6,7,8-tetrahydro[1,2,4]triazolo [4,3-a]pyrazine] |
| < 100 nM | O=C(c1cccc(C(F)(F)F)c1Cl)N1CCn2c(nnc2N2CCCCC2)C1 [Example 23, 7-{[2-chloro-3-(trifluoromethyl)phenyl]carbonyl}-3-(1-piperidinyl)-5,6,7,8-tetrahydro[1,2,4]triazolo [4,3-a]pyrazine] |
| < 100 nM | Cn1nccc1-c1nnc2n1CCN(C(=O)c1cccc(Cl)c1Cl)C2 [Example 81, 7-[(2,3-dichlorophenyl)carbonyl]-3-(1-methyl-1H-pyrazol-5-yl)-5,6,7,8-tetrahydro[1,2,4]triazolo [4,3-]pyrazine] |
| < 10 nM | O=C(c1cccc(C(F)(F)F)c1Cl)N1CCn2c(nnc2-c2ccco2)C1 [Example 77, 7-{[2-chloro-3-(trifluoromethyl)phenyl]carbonyl}-3-(2-furanyl)-5,6,7,8-tetrahydro[1,2,4]triazolo[4,3-a]pyrazine] |
| < 100 nM | Cc1ccc(-c2nnc3n2CCN(C(=O)c2cccc(C(F)(F)F)c2Cl)C3)nc1 [Example 51, 7-{[2-chloro-3-(trifluoromethyl)phenyl]carbonyl}-3-(5-methyl-2-pyridinyl)-5,6,7,8-tetrahydro[1,2,4]triazolo [4,3-a]pyrazine] |
| < 501 nM | O=C(c1ccc(F)cc1Cl)N1CCn2c(nnc2-c2cccc(F)n2)C1 [Example 41, 7-[(2-chloro-4-fluorophenyl)carbonyl]-3-(6-fluoro-2-pyridinyl)-5,6,7,8-tetrahydro[1,2,4]triazolo [4,3-a]pyrazine] |
| < 501 nM | O=C(c1ccc(F)cc1Cl)N1CCn2c(nnc2-c2cccc3cccnc23)C1 [Example 129, 8-{7-[(2-chloro-4-fluorophenyl)carbonyl]-5,6,7,8-tetrahydro[1,2,4]triazolo[4,3-a]pyrazin-3-yl}quinoline] |
| < 100 nM | O=C(c1cccc(F)c1F)N1CCn2c(nnc2-c2ccccn2)C1 [Example 88, 7-[(2,3-difluorophenyl)carbonyl]-3-(2-pyridinyl)-5,6,7,8-tetrahydro[1,2,4]triazolo [4,3-a]pyrazine] |
